Experimental data reported in patent US11261189B2, “Substituted 2,4 diamino-quinoline as new medicament for fibrosis, autophagy and cathepsins B (CTSB), L (CTSL) and D (CTSD) related diseases” (Genoscience Pharma, priority 2018, dated 2022).
Counter-ions that a name gives are not always drawn.

Molecular target: T1, cathepsin B (CTSB) (Homo sapiens, UniProt P07858)
T1 construct: endogenous in cells; host or cells: HepG2
Assay: Cathepsin B (CTSB) catalytic activity in lysates of treated HepG2 cells (Z-RR-AMC substrate)
Assay type: cell-based
Conditions: for CTSB activity versus NT: 6 hours of treatment
Description: Lysosomal functions was investigated in a hepatocellular carcinoma (HCC) cell line HepG2 after 6 hours and 24 hours of treatment with compound 2-3 (the hydrochloride salt form of compound 2-2) using functional assays of some lysosomal enzymes activity: two cysteine proteinases: cathepsin B (CTSB) and cathepsin L (CTSL), and one aspartic proteinase: cathepsin D (CTSD). Two sets of three concentrations of compound 2-3 (1 μM, 2 μM, and 4 μM for 6 hours, and 0.5 μM, 1 μM and 2 μM for 24 hours) were tested at least in triplicate and four independent experiments were performed. Salinomycin (7.5 μM for 6 hours and 24 hours) was used as a positive control.
The HepG2 cell line was maintained in DMEM (Dulbecco's Modified Eagle Media) high glucose (Cat #L0103-500, Dutscher) containing 1% penicillin-streptomycin (Cat #P06-07100, Dutscher) and 10% FBS (Fetal Bovine Serum) (Cat #11543407, Life Technologies). Cells were cultured at 37° C. with 5% CO2.
The day before the experiment, 6-well plates (Cat #353046, Dutscher) with 250,000 cells in 2.7 mL of medium per well were prepared.
Compound 2-3 was dissolved with filtrated H2O mQ to make a 10 mM stock solution and serial working solutions (10× solutions) were prepared with the diluent (=culture medium with 0.4% H2O mQ) at 5 μM, 10 μM, 20 μM and 40 μM: the “dilution 1” is made from the 10 mM stock solution in the culture medium and the following serial dilutions were made in the diluent to maintain a constant percentage of H2O.
Salinomycin [CAS 53003-10-4] was used as positive control and was dissolved with methanol to make a 10 mM stock solution and a 10× solution at 75 μM was prepared with the culture medium.
300 μL of compound 2-3 10× solutions (solutions at 10 μM, 20 μM and 40 μM for 6 hours of treatment and solutions at 5 μM, 10 μM and 20 μM for 24 hours of treatment) or 300 μL of diluent (=non-treated (NT) condition) or 300 μL of Salinomycin 10× solution were dispensed in the appropriate wells (4 wells/condition). After cells treatment, 6-well plates were returned to incubator for 6 hours or 24 hours.
After 6 hours or 24 hours of cells treatment, the medium was removed from each well. The cells were carefully rinsed with PBS (phosphate-buffered saline, Cat #L0615-500, Dutscher) and detached with 500 μL per well of a trypsin solution. After 5 min of trypsin (Cat #L0930-100, Dutscher) incubation at 37° C., 800 μL of medium was added per well and transferred to a 1.5 mL tube. Then, 800 μL of PBS was used to rinse each well and the corresponding solution was pooled in each corresponding 1.5 mL tube. […] Total protein concentration was assessed using the Bradford reagent (Cat #B6916-500ML, Sigma-Aldrich) and cellular lysates were stored at −80° C. until catalytic activity measurement. […]

Compound: CC(C)(C)NC1CCN(c2cc(NCc3ccc(Cl)cc3)nc3ccccc23)CC1 [2-3, 2-(4-chlorobenzylamino)-4-(4-tert-butylaminopiperidin-1-yl)-quinoline Hydrochloride Salt]
- CTSB activity versus NT (HepG2, 2 μM): 75.4%
- CTSB activity versus NT (HepG2, 4 μM): 54.0%
- inhibition of cathepsin B (CTSB) compare to the control (HepG2, 2 μM, 4 μM for 6 hours and 2 μM for 24 hours, p<0.05): statistically significant
